Data taken from patent publication US8563571B2, “Crystalline forms of oxymorphone hydrochloride” (Noramco, Inc., priority 2010, dated 2013).

What was measured:
[1] = Physical stability at ambient temperature storage (re-analysis of crystalline form)
[2] = Mechanical grinding studies (physical stability of crystalline form)
[3] = Dynamic vapor moisture sorption/desorption analysis; assay type: physicochemical; details: for Moisture uptake by weight: between 75% and 95% RH, sorption; for hysteresis during the desorption cycle: desorption cycle (Form B: between 45% RH and 5% RH); for relative humidity above which hygroscopicity was exhibited: dynamic vapor sorption/desorption, 5% to 95% RH
Procedure: Dynamic vapor sorption/desorption data were collected on a VTI SGA-100 Vapor Sorption Analyzer. Sorption and desorption data were collected over a range of 5% to 95% relative humidity (RH) at 10% RH intervals under a nitrogen purge. Samples were not dried prior to analysis. Equilibrium criteria used for analysis were less than 0.0100% weight change in 5 minutes, with a maximum equilibration time of 3 hours if the weight criterion was not met. Data were not corrected for the initial moisture content of the samples. NaCl and PVP were used as calibration standards.
Dynamic vapor moisture sorption/desorption data was collected for representative samples for oxymorphone HCl Form A and Form B, as shown in FIG. 13 and FIG. 16, respectively.

[4] = re-analyzed after approximately 12 months

For `CN1CC[C@]23c4c5ccc(O)c4O[C@H]2C(=O)CC[C@@]3(O)[C@H]1C5.Cl` [Form F, 4,5-epoxy-3,14-dihydroxy-17-methyl-(5α)-morphinan-6-one hydrochloride (1:1)], the “crystalline form(s) converted to on ambient temperature storage” value (“crystalline form(s) converted” for short) ([1]; after approximately 10 months) was “converting to Form A” and the “stability at ambient temperature storage” value ([1]; after approximately 10 months) was “unstable”.
With `CN1CC[C@]23c4c5ccc(O)c4O[C@H]2C(=O)CC[C@@]3(O)[C@H]1C5.Cl` [Form B, 4,5-epoxy-3,14-dihydroxy-17-methyl-(5α)-morphinan-6-one hydrochloride (1:1)] the “physical stability under mechanical grinding” value ([2]; in the presence of a small quantity of water) was “physically stable”, the “physical stability under mechanical grinding” value ([2]; mechanically ground in the absence of water) was “partially converted to Form A” and the “Moisture uptake by weight” value [3] was “about 43%”. The “hysteresis during the desorption cycle” value [3] was “no hysteresis was observed”, the “relative humidity above which hygroscopicity was exhibited” value [3] was “above 75%” and the “moisture content at the end of the cycle (in words)” value ([3]; end of desorption cycle) was “returned to the initial moisture content”.
For `CN1CC[C@]23c4c5ccc(O)c4O[C@H]2C(=O)CC[C@@]3(O)[C@H]1C5.Cl` [Form A, 4,5-epoxy-3,14-dihydroxy-17-methyl-(5α)-morphinan-6-one hydrochloride (1:1), reference compound], the “moisture retained at the end of the desorption cycle” value ([3]; at 5% RH, end of cycle) was 2.4%, the “Moisture uptake by weight” value [3] was “about 50%” and the “hysteresis during the desorption cycle” value [3] was “hysteresis was observed”. The “relative humidity above which hygroscopicity was exhibited” value [3] was “above 75%”.
In the case of `CN1CC[C@]23c4c5ccc(O)c4O[C@H]2C(=O)CC[C@@]3(O)[C@H]1C5.Cl` [Form C, 4,5-epoxy-3,14-dihydroxy-17-methyl-(5α)-morphinan-6-one hydrochloride (1:1)], the “form found on re-analysis by pXRD after storage in ambient conditions” value ([1]; Example 8 sample, storage time not given) is reported as “remain Form C” and the “stability at ambient temperature storage” value [1, 4] is reported as “stable”.
For `CN1CC[C@]23c4c5ccc(O)c4O[C@H]2C(=O)CC[C@@]3(O)[C@H]1C5.Cl` [Form L, 4,5-epoxy-3,14-dihydroxy-17-methyl-(5α)-morphinan-6-one hydrochloride (1:1)], the “crystalline form(s) converted” value ([1]; after approximately 10 weeks) was “a mixture of crystalline forms, one of which is Form A (a sesquihydrate) and the other is a monohydrate/hemi-ethanolate” and the “stability at ambient temperature storage” value ([1]; after approximately 10 weeks) was “unstable”.
With `CN1CC[C@]23c4c5ccc(O)c4O[C@H]2C(=O)CC[C@@]3(O)[C@H]1C5.Cl` [Form D, 4,5-epoxy-3,14-dihydroxy-17-methyl-(5α)-morphinan-6-one hydrochloride (1:1)] the “crystalline form(s) converted” value ([1]; after approximately 12 months) was “a mixture of Form A and Form B” and the “stability at ambient temperature storage” value [1, 4] was “unstable”.
